This note sets out measurements from PubChem BioAssay AID1996.

In brackets after ≈: the same amount, converted by molar mass.

The conditions of this data set: buffer; pH 7.4; 200.0 µM.
For orientation: solubility (kinetic) means solubility judged after dilution from a stock solution rather than from solid. With `Cc1ccccc1OCCC(=O)Nc1ccccc1C(=O)N1CCCCC1`, the solubility (kinetic) is 52.7 µg/mL (≈ 144 µM).
In the case of `COc1cccc(Nc2cc(C)c3ccccc3n2)c1` it was 8.7 µg/mL (≈ 32.9 µM); in that of `CN(CC(=O)O)S(=O)(=O)c1ccc2oc3ccccc3c2c1`, 40.1 µg/mL (≈ 126 µM).
In turn, `COc1ccc(CNC(=O)C2CCCN2C)cc1OC` (configuration not stated) gave a kinetic solubility of 37 µg/mL (≈ 133 µM).
`COc1ccc(CN(C)C(=O)Cc2c[nH]c3ccccc23)cc1` gave a kinetic solubility of 30.4 µg/mL (≈ 98.6 µM).
In the case of `CC(=O)c1c(C)[nH]c(C(=O)CN(C)CC(=O)Nc2ccccc2Cl)c1C` it was greater than 56.4 µg/mL; in that of `OC1(CC#CCN2CCCCC2)c2ccccc2-c2ccccc21`, 42.2 µg/mL (≈ 133 µM).
`O=C(NC1CC2CCCC(C1)N2C(=O)Nc1ccccc1F)C1CC1` (configuration not stated) yielded a kinetic solubility of 16.2 µg/mL (≈ 46.9 µM). This solubility kinetic lies about 2.6-fold lower than the previous one.
`O=C1/C(=C/c2ccc(O)cc2)SC(=S)N1CC1CCCO1` (configuration not stated) registered a kinetic solubility of 1.3 µg/mL (≈ 4.04 µM).
For the compound `Cn1c(COc2ccc(C(=O)O)cc2)nc2ccccc21`, the kinetic solubility is greater than 42.3 µg/mL.
Take `CC(C)C(=O)N1CCN(c2ccccc2NC(=S)NC(=O)/C=C/c2ccco2)CC1`: the kinetic solubility was found to be 1.6 µg/mL (≈ 3.75 µM).
`Cl.Nc1ccc(Cc2ccccn2)cc1` had a kinetic solubility greater than 38.6 µg/mL.
Compound `COc1cc(/C=C/C(=O)OCC(=O)NC(=O)NC(C)C)ccc1O` registered a kinetic solubility greater than 50.5 µg/mL.
In the case of `COCCn1c(SC2CCOC2=O)nc2ccccc2c1=O` (configuration not stated), the solubility (kinetic) was greater than 48.1 µg/mL.
In turn, `CCCCn1c(=O)cc(C)n(-c2ccccc2)c1=O` had a solubility (kinetic) of 22.8 µg/mL (≈ 88.3 µM).
On to `O=C(NCCc1ccccc1)c1ccc(-c2ccc(F)cc2)o1`, for which the solubility (kinetic) is 7.1 µg/mL (≈ 23 µM).
Compound `CC(OC(=O)c1ccc(C#N)cc1)C(=O)Nc1ccc(Cl)cn1` (configuration not stated) yielded a solubility (kinetic) of 5.4 µg/mL (≈ 16.4 µM).
For the compound `CN1CCN(c2ccc([N+](=O)[O-])c(SCCO)c2)CC1`, the solubility (kinetic) is greater than 44.6 µg/mL.
In turn, `Cn1nccc1C(=O)N1CCC(Cc2ccccc2)CC1` displayed a kinetic solubility greater than 42.5 µg/mL.
Turning to `CCc1c(C)nc(SCC(=O)NC2CCCC2)[nH]c1=O`, the kinetic solubility is greater than 44.3 µg/mL.
On to `O=[N+]([O-])c1ccc(NC(=S)N2CCCC2)cc1`, for which the kinetic solubility was found to be 8.2 µg/mL (≈ 32.6 µM).
In turn, `Cc1cccc(C(=O)O/N=C/c2ccc(Br)cc2)c1` displayed a kinetic solubility of less than 0.7 µg/mL.
In the case of `CCOC(=O)NN1C(=O)c2ccccc2NC1c1ccccn1` (configuration not stated) it was greater than 46.8 µg/mL; in that of `COc1nc2ccccc2nc1N1CCN(c2ccc(F)cc2)CC1`, less than 0.2 µg/mL.
`COC(=O)C(Cc1ccc(O)cc1)NC(=O)NC12CC3CC(CC(C3)C1)C2` (configuration not stated) showed a solubility (kinetic) of 27.5 µg/mL (≈ 73.8 µM).
In turn, `Cc1ccc(C(=O)OCC(=O)NCc2ccc3c(c2)OCO3)cc1S(=O)(=O)N1CCOCC1` had a kinetic solubility of 7.2 µg/mL (≈ 15.1 µM).
In turn, `O=C(COC(=O)c1c(F)cccc1F)NCc1cccs1` showed a solubility (kinetic) greater than 46.7 µg/mL.
As to `Cc1onc(-c2c(Cl)cccc2Cl)c1CO/N=C(\C#N)c1c(Cl)cccc1Cl`, the solubility (kinetic) is less than 0.3 µg/mL.
For `COc1ccc(NC(=O)C2CCCN(S(C)(=O)=O)C2)cc1Cl` (configuration not stated), the solubility (kinetic) amounted to 8.4 µg/mL (≈ 24.2 µM).
As for `O=C(c1ccc([N+](=O)[O-])cc1)N(c1ccccn1)c1ccccn1`, the solubility (kinetic) is greater than 48 µg/mL.
The compound `CC(C)Oc1cccc(C(=O)C2CCCN(C(=O)c3ccoc3)C2)c1` (configuration not stated) registered a solubility (kinetic) of 32.3 µg/mL (≈ 94.6 µM).
With `Cc1ccc(C(=O)C2CCN(CC(=O)NC3CCCC3)CC2)cc1`, the solubility (kinetic) was greater than 49.3 µg/mL.
Compound `CCC(=O)O/N=C(\N)c1ccc(Oc2cc(C)c(Cl)c(C)c2)c([N+](=O)[O-])c1` displayed a solubility (kinetic) of less than 0.3 µg/mL.
Under `CCOC(=O)c1c(C)nsc1NC(=O)c1ccco1` stands 1.6 µg/mL (≈ 5.71 µM); under `O=C(CCC(=O)c1ccccc1)Nc1ccccc1OC(F)F`, greater than 47.9 µg/mL; under `C/C(=N\NC1=NCCN1)c1ccc(N)c([N+](=O)[O-])c1`, greater than 39.3 µg/mL.
With `CCCCNC(=O)c1ccc2c(c1)N(C)C(=O)c1ccccc1S2`, the solubility (kinetic) turned out to be 5.3 µg/mL (≈ 15.6 µM).
As to `C=CC(=O)NC1CC2CCC1(C)C2(C)C` (configuration not stated), the kinetic solubility is greater than 31.1 µg/mL.
Under `CN(NC1OC(=O)c2ccccc21)c1ccc(Cl)cc1[N+](=O)[O-]` (configuration not stated) stands greater than 50.1 µg/mL.
Under `COC(=O)c1sc(N(C)C)c(C#N)c1-c1ccccc1` stands 1.8 µg/mL (≈ 6.29 µM).
On to `COC(=O)CNC(=O)c1cc(-c2ccncc2)nc2ccc(C)cc12`, for which the solubility (kinetic) was greater than 50.3 µg/mL.
`Cc1ccc(OCC(=O)NCCCNC(=O)c2ccco2)cc1C`: the kinetic solubility is greater than 49.6 µg/mL.
In turn, `NS(=O)(=O)c1ccc(CCNC(=O)c2ccc(Cl)c(S(=O)(=O)NCc3ccco3)c2)cc1` yielded a solubility (kinetic) greater than 74.7 µg/mL.
Compound `COc1ccc(CC(C)Nc2cccc(SC)c2)cc1` (configuration not stated) returned a kinetic solubility of 1.6 µg/mL (≈ 5.57 µM).
`Cc1ccc(NC(=O)CCCc2ccccc2)c([N+](=O)[O-])c1` gave a kinetic solubility of 4.5 µg/mL (≈ 15.1 µM).
In turn, `COc1ccc(Cl)cc1/C=C/c1ccc2cccc(O)c2n1` gave a kinetic solubility of 0.8 µg/mL (≈ 2.57 µM).
Regarding `Cn1cnc2c1c(=O)n(Cc1cccc(F)c1)c(=O)n2C`, the solubility (kinetic) was determined as 30.8 µg/mL (≈ 107 µM).
For the compound `CNC(=O)COc1ccc(S(=O)(=O)Nc2ccc(C)cc2)cc1`, the solubility (kinetic) is greater than 50.2 µg/mL.
In the case of `CC(C)CN1CCN(CC#Cc2ccccc2)CC1CCO` (configuration not stated) it was 43.6 µg/mL (≈ 145 µM); in that of `Oc1ccccc1N1CCN(C(c2ccccc2)c2ccccc2)CC1`, 0.4 µg/mL (≈ 1.16 µM); in that of `CCCN(CCC)S(=O)(=O)c1nc2nc(C)cc(C)n2n1`, greater than 46.7 µg/mL.
The compound `O=c1oc2ccccc2nc1/C=C(\O)c1ccc(Br)cc1` yielded a kinetic solubility of 19 µg/mL (≈ 55.2 µM).
Take `Cc1cc2ncc(S(=O)(=O)C(C)(C)C)c(N)n2n1`: the solubility (kinetic) was greater than 40.2 µg/mL.
For the compound `Cc1ccc2c(c1)C1C[N+](C)(CC(=O)c3ccc(Cl)cc3Cl)CCC1N2C(=O)c1ccc(F)cc1.[Cl-]` (configuration not stated), the kinetic solubility was greater than 82.2 µg/mL.
`O=C(CC1CCCCC1)NCc1ccco1`: the solubility (kinetic) is greater than 33.2 µg/mL.
`O=S(=O)(NC1CC2CCC1C2)c1ccc(Cl)cc1` (configuration not stated) had a kinetic solubility of 38.4 µg/mL (≈ 134 µM).
With `COc1ccc(/C=C(\C)c2nc(C)c(-c3ccccc3)c(=O)[nH]2)cc1`, the kinetic solubility stood at 1.4 µg/mL (≈ 4.21 µM).
Under `CC12CC3CC(C1)CC(C(=O)NNC(=O)c1ccncc1)(C3)C2` stands greater than 47 µg/mL.
In the case of `Cn1c(SCC(=O)NC2CCCCC2)nnc1-c1ccccn1` it was greater than 49.7 µg/mL; in that of `C/C(=N\OCc1cccc(C(=O)O)c1)c1ccc(Cl)cc1`, greater than 45.6 µg/mL.
The compound `Cc1cc(Nc2ccc(N3CCOCC3)cc2)c2cccc(C)c2n1.Cl` returned a solubility (kinetic) of 55 µg/mL.
For `Cc1cccc(C(=O)Nc2scc(-c3ccc(Br)cc3)c2C(=O)O)c1`, the solubility (kinetic) is 3.6 µg/mL (≈ 8.65 µM). This solubility kinetic is about 15-fold lower than that of the compound before.
As for `CCOC(=O)C1CCN(S(=O)(=O)c2ccc(C)c(C)c2)CC1`, the kinetic solubility turned out to be 4.5 µg/mL (≈ 13.8 µM).
In the case of `O=C(CS(=O)(=O)Cc1ccccc1)NCc1ccccc1Cl`, the solubility (kinetic) is greater than 50.7 µg/mL.
Under `CN(C)c1ccc(NC(=O)c2ccc(N3CCOCC3)nc2)cc1` stands 20.4 µg/mL (≈ 62.5 µM); under `COc1cccc(C(=O)N2CCN(c3ccccn3)CC2)c1`, 43.8 µg/mL (≈ 147 µM); under `O=C(CCNS(=O)(=O)c1ccccc1)Nc1ccccc1`, greater than 45.7 µg/mL.
Consider `CCOc1ccccc1NC(=O)NCc1ccccn1`, for which the kinetic solubility is greater than 40.7 µg/mL.
In the case of `CCCCNC(=S)Nc1ccc(SC(F)F)cc1` it was greater than 43.6 µg/mL.
With `COc1ccccc1C(=O)C1CCCN(Cc2cccc3nccnc23)C1` (configuration not stated), the solubility (kinetic) is 39.5 µg/mL (≈ 109 µM).
`Fc1cccc(F)c1-c1nc(-c2ccc(Cl)cc2)no1` came in with a solubility (kinetic) of less than 0.3 µg/mL.
The compound `N#CC(C#N)=C/C=C(\Nc1ccc(Cl)cc1)c1ccc(Cl)cc1` yielded a kinetic solubility greater than 51 µg/mL.
